Test results taken from US9428510B2, “Derivatives of azaindazole or diazaindazole type for treating a cancer overexpressing Trk” (PIERRE FABRE MEDICAMENT, priority 2012, dated 2016).
Blank lines part the entries; values can stand above or below the compound they belong to.

Assays:
[1] = biological target: T1, TrkB (Homo sapiens, UniProt Q16620); assay: Test for measuring inhibition of TrkB kinase (Millipore or Kinome Scan, manufacturer's protocols); type: biochemical; conditions: 10 nM compound
T1 construct: purchased Millipore or Kinome Scan (DiscoverX)
T1 sequence (Q16620 32-822): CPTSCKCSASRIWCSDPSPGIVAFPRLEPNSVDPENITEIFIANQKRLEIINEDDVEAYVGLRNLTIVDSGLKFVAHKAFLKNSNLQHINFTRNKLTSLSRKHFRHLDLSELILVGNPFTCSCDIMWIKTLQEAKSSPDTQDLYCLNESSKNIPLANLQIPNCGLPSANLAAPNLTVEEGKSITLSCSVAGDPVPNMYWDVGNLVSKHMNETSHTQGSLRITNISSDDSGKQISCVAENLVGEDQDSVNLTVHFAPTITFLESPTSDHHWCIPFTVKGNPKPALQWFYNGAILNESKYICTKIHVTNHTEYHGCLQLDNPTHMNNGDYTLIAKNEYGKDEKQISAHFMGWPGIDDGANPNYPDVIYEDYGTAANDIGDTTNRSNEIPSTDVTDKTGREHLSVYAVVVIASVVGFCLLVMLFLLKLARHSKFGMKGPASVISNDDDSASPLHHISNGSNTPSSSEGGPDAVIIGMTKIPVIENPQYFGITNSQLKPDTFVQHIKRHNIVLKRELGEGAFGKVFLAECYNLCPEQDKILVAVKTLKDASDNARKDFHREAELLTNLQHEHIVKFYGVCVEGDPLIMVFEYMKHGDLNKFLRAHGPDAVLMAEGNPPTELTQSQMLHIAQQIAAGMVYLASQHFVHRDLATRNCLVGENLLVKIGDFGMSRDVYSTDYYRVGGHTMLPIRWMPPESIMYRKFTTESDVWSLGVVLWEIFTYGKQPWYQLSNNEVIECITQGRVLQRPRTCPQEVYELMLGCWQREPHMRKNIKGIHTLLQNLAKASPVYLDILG
Source text: (§1) These kinases are produced by Millipore or Kinome Scan (DiscoverX) and are screened according to the manufacturer's protocols.

[2] = biological target: T2, TrkA (Homo sapiens, UniProt P04629); assay: Test for measuring inhibition of TrkA kinase (Millipore or Kinome Scan, manufacturer's protocols); type: biochemical; conditions: 10 nM compound
T2 construct: purchased Millipore or Kinome Scan (DiscoverX)
T2 sequence (P04629 33-796): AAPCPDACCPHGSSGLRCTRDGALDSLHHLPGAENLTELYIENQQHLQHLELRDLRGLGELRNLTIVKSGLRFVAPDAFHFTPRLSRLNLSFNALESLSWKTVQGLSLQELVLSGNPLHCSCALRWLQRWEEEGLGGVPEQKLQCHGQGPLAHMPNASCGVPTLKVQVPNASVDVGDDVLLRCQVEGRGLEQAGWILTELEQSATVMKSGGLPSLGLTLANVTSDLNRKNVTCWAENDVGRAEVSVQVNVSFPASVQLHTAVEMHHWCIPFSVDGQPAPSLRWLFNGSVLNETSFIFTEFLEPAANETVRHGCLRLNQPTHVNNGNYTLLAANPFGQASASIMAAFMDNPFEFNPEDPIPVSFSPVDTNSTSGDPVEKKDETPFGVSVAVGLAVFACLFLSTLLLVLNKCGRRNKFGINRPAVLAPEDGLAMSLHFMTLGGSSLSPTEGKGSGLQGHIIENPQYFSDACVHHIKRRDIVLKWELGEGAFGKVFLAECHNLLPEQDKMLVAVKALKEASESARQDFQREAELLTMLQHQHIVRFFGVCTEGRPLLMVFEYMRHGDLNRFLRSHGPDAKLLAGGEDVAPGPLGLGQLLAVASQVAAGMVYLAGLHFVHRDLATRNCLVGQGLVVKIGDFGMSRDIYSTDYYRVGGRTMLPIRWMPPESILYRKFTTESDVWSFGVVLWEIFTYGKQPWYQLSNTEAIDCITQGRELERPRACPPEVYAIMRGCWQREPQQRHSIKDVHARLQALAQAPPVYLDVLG
Source text: as §1

[3] = biological target: T3, TrkB (or NTRK2) (Homo sapiens, UniProt Q16620); assay: In vitro kinase glo plus-based kinase assay, TrkB; type: biochemical; conditions: N=36, 40 μM ATP
T3 construct: using the soluble intracellular segment of theses receptors, containing the kinase activity; purchased Invitrogen
T3 sequence (Q16620 455-822 limits assumed): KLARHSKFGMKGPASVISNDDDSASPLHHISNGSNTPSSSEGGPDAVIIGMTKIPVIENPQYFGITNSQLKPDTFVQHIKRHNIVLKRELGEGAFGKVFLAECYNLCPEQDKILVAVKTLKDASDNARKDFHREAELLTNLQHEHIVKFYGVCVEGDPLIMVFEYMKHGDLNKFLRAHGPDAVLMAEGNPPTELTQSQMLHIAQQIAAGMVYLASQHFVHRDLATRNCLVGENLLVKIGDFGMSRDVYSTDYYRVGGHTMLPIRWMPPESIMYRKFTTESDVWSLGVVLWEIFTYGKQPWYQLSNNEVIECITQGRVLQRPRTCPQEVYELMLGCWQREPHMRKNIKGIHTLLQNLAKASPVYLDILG
Procedure: An in vitro kinase glo plus-based kinase assay (Promega) was developed in a 96 wells assay plate format to assess the inhibiting properties of compounds on tropomyosin related kinases (Trk) receptors, using the soluble intracellular segment of theses receptors, containing the kinase activity (TrkA (or NTRK1; 400 ng/well; […] Invitrogen)). […] Plates were removed from incubator, and 50 μl of kinase-glo plus was added to each well, followed by a 10 minute incubation at room temperature. The luciferase-induced luminescence, which is proportional to the ATP remaining in the well, was measured on a luminometer. Controls on each plates included wells with the kinase alone (maximal ATP consumption, or 0% inhibition), wells without the kinase (maximal ATP signal or 100% inhibition), and wells with 20 μM staurosporine (positive control of inhibition). […] N=42; […]

[4] = test system: KM-12 colon cancer cells; assay: Antiproliferative activity against human colon cancer cells (KM-12), ATPlite; type: cell-based; conditions: KM12, KM-12 cells, 72 hours, read-out: Cell proliferation inhibition (KM-12) IC50
Procedure: The antiproliferative activities of the compounds according to the invention were measured by the ATPlite technique (Perkin Elmer).
Adherent human colon cancer cells (KM-12 colon cancer cells are TrkA-dependent) are inoculated in 96-well plates (3500 cells/well) on day 0, at a concentration compatible with logarithmic growth for the 72 hours required for the evaluation of the compounds. All of the cells are treated on day 1 and then placed in an incubator at 37° C. under an atmosphere of 5% CO2. Cell viability is evaluated on day 4 by assaying released ATP, which is characteristic of viable cells. IC50s are determined by nonlinear regression on the basis of a sigmoidal dose/response relationship model, wherein the Hill coefficient is left variable, carried out on the GraphPad software package according to the algorithm provided.

[5] = test system: KM-12 experimental tumor model; assay: In vivo antitumor activity against the KM-12 experimental tumor model; conditions: oral route, (q1d6)x2 weeks schedule
Source text: This activity is noticeable since colon cancer is overall poor responsive to chemotherapy.

Enzymatic inhibition at 10 nM (%) TrkB [1]: 98%
Enzymatic inhibition at 10 nM (%) TrkA [2]: 55%
SMILES: CN1CCN(c2ccc(C(=O)Nc3n[nH]c4ncc(Cc5cc(F)cc(F)c5)cc34)c(NC3CCOCC3)c2)CC1 [Example 30-9, N-(5-(3,5-difluorobenzyl)-1H-pyrazolo[3,4-b]pyridin-3-yl)-4-(4-methylpiperazin-1-yl)-2-(tetrahydro-2H-pyran-4-ylamino)benzamidc]

SMILES: COC(=O)[C@@]1(O)C[C@H]2O[C@]1(C)n1c3ccccc3c3c4c(c5c6ccccc6n2c5c31)C(=O)NC4 [Example K252a, K252a]
IC50 [3]: 74 nM
pIC50 on TrkB ([3]; mean±SD): 7.16±0.18

IC50 [4]: 2.2 nM
SMILES: CN1CCN(c2ccc(C(=O)Nc3n[nH]c4nc(N)c(Sc5cc(F)cc(F)c5)cc34)c(NC3CCOCC3)c2)CC1 [Example 14-11, N-(6-amino-5-(3,5-difluorophenylthio)-1H-pyrazolo[3,4-b]pyridin-3-yl)-4-(4-methylpiperazin-1-yl)-2-(tetrahydro-2H-pyran-4-ylamino)benzamide]

IC50 [4]: 36 nM
SMILES: CN1CCN(c2ccc(C(=O)Nc3n[nH]c4ncc(Sc5cc(F)cc(F)c5)cc34)c(NC3CCOCC3)c2)CC1 [Example 30, N-(5-(3,5-difluorophenylthio)-1-H-pyrazolo[3,4-b]pyridine-3-yl)-4-(4-methylpiperazine-1-yl)-2-(tetrahydro-2H-pyran-4-ylamino)benzamide]
adverse effects ([5]; 120 and 240 mg/kg): without any adverse effects
tumor growth inhibition ([5]; recorded at 120 and 240 mg/kg, lasts one week after the end of treatment): up to 96%
